Results reported in patent US20240050403A1, “THERAPY OF POST-OPERATIVE EMESIS WITH AMISULPRIDE” (Acacia Pharma Limited, priority 2016, published 2024).
“And” between values parts separate entries of the source, which are not always exact repeats. Equal entries are not always repeated.

Key:
Type in all cases: in vivo, human
adult surgical patients [1] = assay: Two Phase III clinical trials, multi-centre, double-blind, randomised, placebo-controlled, PONV incidence
Method: In two multi-centre, double-blind, randomised, placebo-controlled Phase III clinical trials involving 626 evaluable, adult surgical patients (again conducted by the applicant), administration of amisulpride at 5 mg was associated with a PONV incidence of 48%, compared to 59% with placebo (p<0.01).

[2] = test system: adult, surgical patients at high risk of PONV; assay: Study 1: Phase III study of amisulpride as combination prophylaxis against PONV in high-risk patients
Method: A randomised, double-blind, placebo-controlled Phase Ill study of amisulpride as combination prophylaxis against post-operative nausea and vomiting in high-risk patients was conducted. The primary aim of the study was to assess the efficacy of amisulpride at 5 mg in the prevention of post-operative nausea and vomiting (PONV) in adult, surgical patients at high risk of PONV. The amisulpride was administered in combination with a standard anti-emetic.
The subjects of the study were 1204 randomised adult patients ([…]) at high risk of PONV who were undergoing elective ambulatory (day-case) or in-patient surgery under general inhalational anaesthesia for an expected duration of at least one hour from induction of anaesthesia to extubation. Of the 1204 randomised patients, 1147 were dosed and eligible.
High risk of PONV was defined as having at least three of the following risk factors: • Past history of PONV and/or motion sickness • Habitual non-smoking status • Female • Expected use of post-operative opioid analgesia
5 mg amisulpride was administered as a single, slow, intravenous (IV) push over one minute at the time of induction of anaesthesia; given in combination with a standard anti-emetic. Examples of standard anti-emetics used were ondansetron, granisetron and dexamethasone.
The two arms of the study were as follows: • Arm 1: amisulpride IV at 5 mg in combination with a standard anti-emetic which is not a dopamine D2-antagonist (e.g. ondansetron IV at 4 mg, granisetron IV at 1 mg, or dexamethasone IV at 4 mg); • Arm 2 (control): amisulpride IV placebo in combination with a standard anti-emetic, as defined above • The primary efficacy variable was the absence or presence of PONV during the 24-hour post-operative period, where PONV was defined as the occurrence of one or more emetic episodes (vomiting and/or retching) or the receipt of one or more doses of rescue anti-emetic medication. Absence of PONV by this definition was termed “Complete Response” (CR). A number of secondary variables were evaluated including the occurrence of emesis (vomiting and/or retching).
A comparison of the incidence of CR in the 0-24-hour period after surgery between the amisulpride group and the placebo group using Pearson's x2 test with Yates's continuity correction at a one-sided significance level of 2.5%. The primary efficacy analysis population was the modified intent-to-treat (mITT) population.
Secondary efficacy variables assessed by incidence (e.g., emesis) were compared between the groups using Pearson's x2 test.

adult surgical patients [3] = assay: Phase II clinical trial, multi-centre, double-blind, randomised, placebo-controlled, PONV incidence
Method: In a multi-centre, double-blind, randomised, placebo-controlled Phase II clinical trial in adult surgical patients (conducted by the applicant), administration of amisulpride at 5 mg was associated with a PONV incidence of 40%, compared to 69% with placebo (p<0.01).

CCN1CCCC1CNC(=O)c1cc(S(=O)(=O)CC)c(N)cc1OC (racemic) [Amisulpride, amisulpride]
PONV incidence (adult surgical patients [1]; amisulpride at 5 mg, 626 evaluable patients, placebo 59% (p<0.01)): 48%
safety profile versus placebo (adult surgical patients [1]; amisulpride versus placebo): no significant difference between the safety profiles
transient increases in serum prolactin levels (adult surgical patients [1]; amisulpride versus placebo): more common with amisulpride
Calculated RRR (relative risk reduction) of post-operative emesis ([2]; 5 mg IV plus a standard anti-emetic versus placebo plus standard anti-emetic): 30.94%
Calculated RRR (relative risk reduction) of PONV ([2]; 5 mg IV plus a standard anti-emetic versus placebo plus standard anti-emetic, 24 hour period): 20.8% and 20.76%
Calculated RRR (relative risk reduction) of post-operative emesis ([2]; 5 mg IV plus a standard anti-emetic versus placebo plus standard anti-emetic, listed as amisulpride): 31%
Difference in PONV rate (improvement in CR rate) versus placebo plus standard anti-emetic ([2]; 5 mg IV plus a standard anti-emetic, 24 hour period, mITT, p<0.001): 11.08%
Number of patients with PONV ([2]; 5 mg IV plus a standard anti-emetic, 24 hour period, of 572 patients): 242
Number of patients with CR (complete response) ([2]; 5 mg IV plus a standard anti-emetic, 24 hour period, of 572 patients (mITT)): 330
% patients with PONV ([2]; 5 mg IV plus a standard anti-emetic, 24 hour period, placebo plus standard anti-emetic 53.39): 42.31%
Number of patients with post-operative emesis (vomiting and/or retching) ([2]; 5 mg IV plus a standard anti-emetic, of 572 patients): 79
Difference in post-operative emesis rate versus placebo plus standard anti-emetic ([2]; 5 mg IV plus a standard anti-emetic, p=0.003): 6.19%
% patients with post-operative emesis (vomiting and/or retching) ([2]; 5 mg IV plus a standard anti-emetic, placebo plus standard anti-emetic 20.00): 13.81%
PONV incidence (adult surgical patients [3]; amisulpride at 5 mg, placebo 69% (p<0.01)): 40%
adverse events, laboratory or ECG abnormalities versus placebo (adult surgical patients [3]; amisulpride versus placebo): no difference in the nature, incidence or severity of adverse events, or of laboratory or ECG abnormalities
